By EC50 is commonly meant the concentration needed to bring the measured effect to its halfway point.

This assay in a line: Cytotoxicity of compound towards Y190 yeast cells. Type of assay: functional, cell-based. The following applies: Saccharomyces cerevisiae.
For the compound `COc1ccc(C2CCC(=C(C)C(=O)O)CC2)cc1` (stereo not drawn), the response was half-maximal at 130 µM (EC50). To `CC(C(=O)O)=C1CCC(c2ccccc2)CC1` (stereo not drawn) belongs 143 µM. Then `O=C(O)C=C1CCCC1`, with over 300 µM. `O=C(O)C=C1CCCCCC1`: the EC50 was over 300 µM.

Compound `CC(C(=O)O)=C1CCCC1` came in with an EC50 of over 300 µM.

The compound `C/C(C(=O)O)=C1\CCCC(C)C1` (stereo not drawn) displayed a half-maximal effective concentration (EC50) of over 300 µM. Compound `CCCC1CCC(=C(C)C(=O)O)CC1` (stereo not drawn) displayed an EC50 of 74 µM. In turn, `CCC1CCC(=C(C)C(=O)O)CC1` (stereo not drawn) yielded an EC50 of 125 µM. To `CC(C(=O)O)=C1CCCCC1` belongs over 300 µM; to `CC(C(=O)O)=C1CCC(C)CC1` (stereo not drawn), over 300 µM.

Regarding `CC(C(=O)O)=C1CCC(C(C)(C)C)CC1` (stereo not drawn), it took 81 µM to reach a half-maximal effect (EC50). To `CC(C(=O)O)=C1CCCCCC1` belongs over 300 µM. To `O=CC=C1CCCCCC1` belongs over 300 µM.

Values taken from ChEMBL document CHEMBL1135908, “Synthesis and biological evaluation of cycloalkylidene carboxylic acids as novel effectors of Ras/Raf interaction” (J Med Chem, 2002).
